For experiment [1], the target named is T1, Human KIF18A (amino acid sequence 1-417) (Homo sapiens, UniProt Q8NI77).
T1 construct: purchased Viva Biotech (Shanghai) Ltd
Description: Enzyme activity detection experiment (ADP-Glo, KIF18A with tubulin and ATP). It is filed as biochemical. The conditions noted are these: tubulin 60 μg/mL, ATP 25 μM, KIF18A protein 2.5 nM, 120 minutes at ambient temperature, ADP-Glo chemiluminescence. The procedure, abridged: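 KIF18A (2.5 nM) was incubated with tubulin (60 μg/mL as added), ATP (25 μM) and serially diluted compound for 120 min at ambient temperature. ADP formed was detected by ADP-Glo: reagent for 30 min, then detection reagent for 30 min in the dark, with chemiluminescence read-out.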
For orientation: ADP-Glo first removes unused ATP, then detects ADP through luciferase.

For the next experiment, the system named is OVCAR3 cells. Description: Cell proliferation activity test, OVCAR3 (CyQUANT Direct). The experiment is classed as cell-based. The conditions noted are these: Homo sapiens, OVCAR-3, 72 h, 3 days incubation, CyQUANT fluorescence detection, read-out: OVCAR-3 Cell Viability_IC50_nM. The essentials:
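OVCAR3 cells seeded overnight, then exposed to compounds at 0-10 μM final (0.20% DMSO) for 3 days at 37° C. Cell number read by CyQUANT Direct fluorescence after 60 min at 37° C.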

In another experiment the test system is HT29 cells. Put plainly: CyQuant cell proliferation activity test, HT29. The conditions noted are these: Homo sapiens, HT-29, 72 h, HT29 2000 cells per well, 3 days incubation, initial concentration 3000 nM, IC50 by XLFIT, read-out: HT-29 Cell Viability_IC50_nM. It is filed as cell-based. The procedure, abridged: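 HT29 cells (2000/well, RPMI-1640 with 10% FBS) were plated overnight, then exposed to compound for 3 days at 37 °C, 5% CO2. Dosing was 9 concentrations, 3-fold dilutions from 3000 nM, in 0.20% DMSO. Proliferation was read with CyQuant reagent after 1 h, and IC50 derived from the curves.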

In US20250304551A1 (SHANGHAI APEIRON THERAPEUTICS COMPANY LIMITED, priority 2022, published 2025) one finds IC50 data, which are given here for 15 compounds.

T1 sequence (Q8NI77 1-417): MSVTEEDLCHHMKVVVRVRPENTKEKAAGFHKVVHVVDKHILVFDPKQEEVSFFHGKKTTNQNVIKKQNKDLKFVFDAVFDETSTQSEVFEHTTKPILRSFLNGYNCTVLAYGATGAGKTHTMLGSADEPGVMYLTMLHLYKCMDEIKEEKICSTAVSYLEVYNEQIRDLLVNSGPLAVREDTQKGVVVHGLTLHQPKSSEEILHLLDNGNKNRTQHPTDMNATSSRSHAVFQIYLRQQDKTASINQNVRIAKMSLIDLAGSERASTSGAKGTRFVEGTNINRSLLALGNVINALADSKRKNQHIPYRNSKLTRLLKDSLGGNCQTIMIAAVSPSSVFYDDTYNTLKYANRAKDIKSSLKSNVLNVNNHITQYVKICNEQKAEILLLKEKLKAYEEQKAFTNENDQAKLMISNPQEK
T1 sequence (Q2XVP4 whole entry partner): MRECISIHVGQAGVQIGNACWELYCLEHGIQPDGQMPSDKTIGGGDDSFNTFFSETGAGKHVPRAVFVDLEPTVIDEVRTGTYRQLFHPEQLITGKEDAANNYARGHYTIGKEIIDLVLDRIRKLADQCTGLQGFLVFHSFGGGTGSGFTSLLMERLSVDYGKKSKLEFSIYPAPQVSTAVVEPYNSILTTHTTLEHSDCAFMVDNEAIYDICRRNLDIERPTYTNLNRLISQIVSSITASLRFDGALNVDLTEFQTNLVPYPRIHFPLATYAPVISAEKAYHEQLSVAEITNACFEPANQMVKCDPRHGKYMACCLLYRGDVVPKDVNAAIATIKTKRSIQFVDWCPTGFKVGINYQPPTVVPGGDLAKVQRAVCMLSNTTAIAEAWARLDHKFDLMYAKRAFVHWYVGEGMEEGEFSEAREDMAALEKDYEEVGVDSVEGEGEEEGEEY
T1 sequence (P02554 whole entry partner): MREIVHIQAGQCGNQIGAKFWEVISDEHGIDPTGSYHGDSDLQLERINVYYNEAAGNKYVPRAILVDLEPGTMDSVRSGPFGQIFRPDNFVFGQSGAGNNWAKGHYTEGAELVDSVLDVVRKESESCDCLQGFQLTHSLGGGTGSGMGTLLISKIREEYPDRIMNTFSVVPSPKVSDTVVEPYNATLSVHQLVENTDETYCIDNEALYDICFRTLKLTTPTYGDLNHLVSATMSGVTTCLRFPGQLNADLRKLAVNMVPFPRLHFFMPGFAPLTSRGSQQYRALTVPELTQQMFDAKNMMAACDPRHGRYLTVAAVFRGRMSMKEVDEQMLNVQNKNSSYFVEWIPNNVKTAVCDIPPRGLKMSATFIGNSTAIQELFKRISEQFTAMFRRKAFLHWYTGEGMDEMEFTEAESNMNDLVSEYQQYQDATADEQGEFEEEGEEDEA

As for `Cc1cc(-c2cn(-c3ccc(NS(=O)(=O)C(C)(C)CO)cc3N3CCC4(CC3)CC4)nn2)nc(N2CCC(F)(F)CC2)n1` [Example 86, N-(3-{6-azaspiro[2.5]octan-6-yl}-4-{4-[2-(4,4-difluoropiperidin-1-yl)-6-methylpyrimidin-4-yl]-1H-1,2,3-triazol-1-yl}phenyl)-1-hydroxy-2-methylpropane-2-sulfonamide], the IC50 in experiment [1] was determined as 162 nM; in the experiment on OVCAR3 cells it was 22 nM; in the experiment on HT29 cells, 21 nM.

As to `Cc1cc(-c2cn(-c3cnc(NS(=O)(=O)CCO)cc3N3CCC4(CC3)CC4)nn2)nc(N2CCC(F)(F)CC2)n1` [Example 67, N-(4-{6-azaspiro[2.5]octan-6-yl}-5-{4-[2-(4,4-difluoropiperidin-1-yl)-6-methylpyrimidin-4-yl]-1H-1,2,3-triazol-1-yl}pyridin-2-yl)-2-hydroxyethane-1-sulfonamide], the IC50 in experiment [1] was found to be 12 nM; with OVCAR3 cells, 25 nM; with HT29 cells, 19 nM.

`Cc1cc(-c2cn(-c3ccc(NS(=O)(=O)CCO)cc3N3CCC4(CC3)CC4)nn2)nc(N2CCC(F)(F)CC2)n1` [Example 34, N-(4-(4-(2-(4,4-difluoropiperidin-1-yl)-6-methylpyrimidin-4-yl)-1H-1,2,3-triazol-1-yl)-3-(6-azaspiro[2.5]octan-6-yl)phenyl)-2-hydroxyethanesulfonamide]: the IC50 in experiment [1] was 56 nM; in the experiment with OVCAR3 cells it was 12 nM; in the experiment on HT29 cells it was 15 nM.

Turning to `Cc1cc(-c2nnn(-c3ccc(NS(=O)(=O)CCO)cc3N3CCC4(CC3)CC4)n2)nc(N2CCC(F)(F)CC2)n1` [Example 8, N-(4-(5-(2-(4,4-difluoropiperidin-1-yl)-6-methylpyrimidin-4-yl)-2H-tetrazol-2-yl)-3-(6-azaspiro[2.5]octan-6-yl)phenyl)-2-hydroxyethane-1-sulfonamide], the IC50 in experiment [1] worked out at 775 nM; in the experiment with OVCAR3 cells, 496 nM; with HT29 cells, 250 nM.

As to `Cc1cc(-c2nnc(-c3ccc(NS(=O)(=O)CCO)cc3N3CCC4(CC3)CC4)[nH]2)nc(N2CCC(F)(F)CC2)n1` [Example 4, N-(4-(5-(2-(4,4-difluoropiperidin-1-yl)-6-methylpyrimidin-4-yl)-4H-1,2,4-triazol-3-yl)-3-(6-azaspiro[2.5]octan-6-yl)phenyl)-2-hydroxyethane-1-sulfonamide], the values for the IC50 (in experiment [1]; in the experiment with OVCAR3 cells; with HT29 cells) were 38 nM, 62 nM and 77 nM, respectively.

For `Cc1cc(-c2cn(-c3ccc(NS(=O)(=O)CCO)cc3N3CCC4(CC3)CC4)nn2)cc(N2CCC(F)(F)CC2)n1` [Example 64, N-(4-(4-(2-(4,4-difluoropiperidin-1-yl)-6-methylpyridin-4-yl)-1H-1,2,3-triazol-1-yl)-3-(6-azaspiro[2.5]octan-6-yl)phenyl)-2-hydroxyethane-1-sulfonamide], the IC50 in experiment [1] turned out to be 177 nM; in the experiment with OVCAR3 cells, 27 nM; in the experiment with HT29 cells it was 27 nM.

With `O=S(=O)(CCO)Nc1ccc(-n2cc(-c3cc(NCCO)nc(N4CCC(F)(F)CC4)n3)nn2)c(N2CCC3(CC2)CC3)c1` [Example 57, N-(3-{6-azaspiro[2.5]octan-6-yl}-4-{4-[2-(4,4-difluoropiperidin-1-yl)-6-[(2-hydroxyethyl)amino]pyrimidin-4-yl]-1H-1,2,3-triazol-1-yl}phenyl)-2-hydroxyethane-1-sulfonamide], the values for the IC50 (in experiment [1]; in the experiment with OVCAR3 cells; in the experiment with HT29 cells) were 72 nM, 8 nM and 4.5 nM, respectively.

In the case of `Nc1ncc(-c2cn(-c3ccc(NS(=O)(=O)CCO)cc3N3CCC4(CC3)CC4)nn2)nc1N1CCC(F)(F)CC1` [Example 79, N-(4-{4-[5-amino-6-(4,4-difluoropiperidin-1-yl)pyrazin-2-yl]-1H-1,2,3-triazol-1-yl}-3-{6-azaspiro[2.5]octan-6-yl}phenyl)-2-hydroxyethane-1-sulfonamide], the figures for the IC50 (in experiment [1]; in the experiment on OVCAR3 cells; in the experiment with HT29 cells) were 24 nM, 11 nM and 7 nM, respectively.

In the case of `Cc1cc(-c2cn(-c3ccc(NS(=O)(=O)CCO)cc3N3CCC4(CC3)CC4)nn2)nc(N2[C@H](C)CC(F)(F)C[C@@H]2C)n1` [Example 50, N-(4-(4-(2-((2S,6R)-4,4-difluoro-2,6-dimethylpiperidin-1-yl)-6-methylpyrimidin-4-yl)-1H-1,2,3-triazol-1-yl)-3-(6-azaspiro[2.5]octan-6-yl)phenyl)-2-hydroxyethane-1-sulfonamide], the results for the IC50 (in experiment [1]; in the experiment with OVCAR3 cells; in the experiment on HT29 cells) were 1050 nM, 222 nM and 245 nM, respectively.

Consider `O=S(=O)(CCO)Nc1ccc(-n2cc(-c3cc(N4CCC(F)(F)CC4)c4nnccc4c3)nn2)c(N2CCC3(CC2)CC3)c1` [Example 76, N-(4-(4-(8-(4,4-difluoropiperidin-1-yl)cinnolin-6-yl)-1H-1,2,3-triazol-1-yl)-3-(6-azaspiro[2.5]octan-6-yl)phenyl)-2-hydroxyethane-1-sulfonamide], for which the results for the IC50 (in experiment [1]; with OVCAR3 cells; in the experiment with HT29 cells) were 75 nM, 12 nM and 16 nM, respectively.

In the case of `Cc1cc(-n2cc(-c3ccc(NS(=O)(=O)CCO)cc3N3CCC4(CC3)CC4)nn2)nc(N2CCC(F)(F)CC2)n1` [Example 89, N-(4-(1-(2-(4,4-difluoropiperidin-1-yl)-6-methylpyrimidin-4-yl)-1H-1,2,3-triazol-4-yl)-3-(6-azaspiro[2.5]octan-6-yl)phenyl)-2-hydroxyethanesulfonamide], the IC50 in experiment [1] was determined as 61 nM; in the experiment with OVCAR3 cells, 36 nM; in the experiment with HT29 cells, 40 nM.

As to `Cc1cc(-c2cn(-c3ccc(NS(=O)(=O)CCO)cc3N3CCC4(CC3)CC4)nn2)nc(C2=CCOCC2)n1` [Example 35, N-(4-(4-(2-(3,6-dihydro-2H-pyran-4-yl)-6-methylpyrimidin-4-yl)-1H-1,2,3-triazol-1-yl)-3-(6-azaspiro[2.5]octan-6-yl)phenyl)-2-hydroxyethane-1-sulfonamide], the IC50 turned out to be 42 nM in experiment [1], 23 nM in the experiment with OVCAR3 cells and 21 nM in the experiment with HT29 cells.

On to `COc1cc(-c2nnc(-c3ccc(NS(=O)(=O)CCO)cc3N3CCC4(CC3)CC4)o2)cc(N2CCC(F)(F)CC2)n1` [Example 22, N-(4-(5-(2-(4,4-difluoropiperidin-1-yl)-6-methoxypyridin-4-yl)-1,3,4-oxadiazol-2-yl)-3-(6-azaspiro[2.5]octan-6-yl)phenyl)-2-hydroxyethane-1-sulfonamide], for which the IC50 in experiment [1] amounted to 46 nM; with OVCAR3 cells, 34 nM; in the experiment with HT29 cells, 23 nM.

Consider `COc1cc(-c2cn(-c3ccc(NS(=O)(=O)CCO)cc3N3CCC4(CC3)CC4)nn2)c(F)c(N2CCC(F)(F)CC2)n1` [Example 63, N-(4-(4-(2-(4,4-difluoropiperidin-1-yl)-3-fluoro-6-methoxypyridin-4-yl)-1H-1,2,3-triazol-1-yl)-3-(6-azaspiro[2.5]octan-6-yl)phenyl)-2-hydroxyethane-1-sulfonamide], for which the results for the IC50 (in experiment [1]; in the experiment on OVCAR3 cells; with HT29 cells) were 437 nM, 108 nM and 153 nM, respectively.

As for `Cc1cc(-c2cn(-c3ccc(NS(=O)(=O)[C@@H](C)CO)cc3N3CCC4(CC3)CC4)nn2)nc(N2CCC(F)(F)CC2)n1` [Example 84, (2S)—N-(3-{6-azaspiro[2.5]octan-6-yl}-4-{4-[2-(4,4-difluoropiperidin-1-yl)-6-methylpyrimidin-4-yl]-1H-1,2,3-triazol-1-yl}phenyl)-1-hydroxypropane-2-sulfonamide], the IC50 in experiment [1] worked out at 125 nM; with OVCAR3 cells it was 21 nM; in the experiment with HT29 cells it was 25 nM.
